Measurements reported in patent publication US10119097B2, “Organic compounds” (GIVAUDAN SA, priority 2014, dated 2018).

Key:
primates = details: cited from earlier work
mice = details: mouse, in vivo; cited from earlier work
guinea-pigs = details: guinea pig, in vivo; cited from earlier work
rat hepatocytes = test: in vitro metabolism in rat hepatocytes in suspension, benzoic acid derivative formation by GC-MS; format: in vitro ADME; details: incubated with hepatocytes isolated from rats; substantially no = below the limit of detection, i.e. <1%
From the text: Decrease of Lilial™ and the compound released by the precursor of the present invention, and formation of the corresponding benzoic acid derivative may be analysed by GC-MS.
By “substantially no benzoic acid derivative” is meant that the concentration of said derivative is below the limit of detection, i.e. <1%. As such, the fragrance precursor releasing 3-(4-isobutyl-2-methylphenyl)propanal provides perfumers with an eminently suitable surrogate for the valuable yet problematic Lilial™.

Row | SMILES | toxic effects (primates) | toxic effects (mice) | toxic effects (guinea-pigs) | formation of the corresponding benzoic acid derivative (rat hepatocytes)
1 | CC(C=O)Cc1ccc(C(C)(C)C)cc1 (stereo not shown) [Lilial™, 3-(4-tert-butylphenyl)-2-methylpropanal] | No effects were found | No effects were found | No effects were found | –
2 | Cc1cc(CC(C)C)ccc1CCC=O [3-(4-isobutyl-2-methylphenyl)propanal] | – | – | – | forms no, or substantially no, corresponding benzoic acid derivative
